Some test systems named below: 786-0 renal; A498 renal; HCT-15 colon; HL-60(TB) leukemia; IGROV1 ovarian; OVCAR-4 ovarian; SK-MEL-5 melanoma; SNB-19 CNS; U251 CNS; UACC-62 melanoma.
Common to all, as to assay: NCI-60 cell line screen, 48 h

The record followed here is PubChem BioAssay (NCI).

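Dose response: 5 concentrations. Exposure: 48 h. Format: 96-well plates. Endpoint: linear interpolation; highest concentration if not reached. Abbreviation: GI50, concentration required for 50% inhibition of growth. TGI marks complete inhibition of growth.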 A value given as a limit tells only on which side of the number the result lay.

For the molecule `C[C@@]12CC=C3c4nc(Nc5cccc(O)c5)sc4CC[C@]3(C)[C@H]1CC[C@]1(C)C(=O)CC[C@@H]21`, the GI50 is 1.55 µM with 786-0 renal; 18 µM in the assay on A498 renal; 1.38 µM in the assay with HCT-15 colon; 2.35 µM in the assay on HL-60(TB) leukemia; 2.23 µM with IGROV1 ovarian; 2.76 µM in the assay with OVCAR-4 ovarian. The GI50 in the assay on SK-MEL-5 melanoma was 5.7 µM; in the assay on SNB-19 CNS it was 3.88 µM; in the assay on U251 CNS, 2.24 µM; with UACC-62 melanoma, 2.08 µM. The TGI with 786-0 renal is 4.91 µM; in the assay on A498 renal, 75.8 µM; with HCT-15 colon, 3.33 µM; with HL-60(TB) leukemia, 6.48 µM; with IGROV1 ovarian it was 6.04 µM; in the assay on OVCAR-4 ovarian, above 100 µM. In addition, the TGI in the assay on SK-MEL-5 melanoma is above 100 µM; with SNB-19 CNS, 55.7 µM; in the assay on U251 CNS, 16.9 µM; in the assay with UACC-62 melanoma it was 5.25 µM.
`COc1ccccc1CCc1cc(OC)c(OC)c(OC)c1`: the TGI in the assay on 786-0 renal was above 100 µM; with A498 renal, above 100 µM; in the assay on HCT-15 colon, above 100 µM; in the assay on HL-60(TB) leukemia it was 39.3 µM; in the assay with IGROV1 ovarian, above 100 µM; in the assay with OVCAR-4 ovarian it was above 100 µM. In addition, the TGI was 42.7 µM with SK-MEL-5 melanoma, above 100 µM in the assay with SNB-19 CNS, above 100 µM with U251 CNS and above 100 µM in the assay on UACC-62 melanoma.
As for `CCC[CH2][Sn]1([CH2]CCC)[O]CC(CN2CCCC2)[O]1` (stereo unspecified), the GI50 in the assay on 786-0 renal is 14.4 µM; with A498 renal it was 28.5 µM; with HCT-15 colon, 15.3 µM; in the assay on HL-60(TB) leukemia it was 3.87 µM; with IGROV1 ovarian it was 21.1 µM; in the assay on OVCAR-4 ovarian it was 14.4 µM. The GI50 with SK-MEL-5 melanoma is 17.9 µM; in the assay with SNB-19 CNS it was 18.7 µM; in the assay with U251 CNS, 15.3 µM; in the assay with UACC-62 melanoma, 13.6 µM. In addition, the TGI amounted to 28.2 µM in the assay with 786-0 renal; 46.9 µM in the assay on A498 renal; 29.2 µM in the assay with HCT-15 colon; 15.2 µM with HL-60(TB) leukemia; 37.1 µM in the assay with IGROV1 ovarian; 28.5 µM in the assay with OVCAR-4 ovarian. The TGI with SK-MEL-5 melanoma stood at 33.4 µM; in the assay on SNB-19 CNS it was 44.3 µM; in the assay with U251 CNS it was 29.1 µM; in the assay on UACC-62 melanoma, 30.5 µM.
Regarding `Cc1cn(C2CC(O)C(CO)O2)c(=O)n2nnnc12` (stereo unspecified), the TGI in the assay with 786-0 renal, with A498 renal, with HCT-15 colon, in the assay on HL-60(TB) leukemia, in the assay on IGROV1 ovarian and in the assay with OVCAR-4 ovarian was above 100 µM each time. For the same molecule, the TGI in the assay with SK-MEL-5 melanoma, with SNB-19 CNS, in the assay with U251 CNS and in the assay on UACC-62 melanoma was above 100 µM in each case.
For the molecule `COc1cc(-c2ccc3c(c2)NC(=O)/C3=C\c2ccc[nH]2)ccc1O`, the GI50 in the assay on 786-0 renal is 0.0385 µM; in the assay on A498 renal, 2.09 µM; with HCT-15 colon, 0.0228 µM; in the assay on HL-60(TB) leukemia it was 0.0155 µM; in the assay on IGROV1 ovarian, 0.0697 µM; in the assay with OVCAR-4 ovarian, 2.58 µM. Besides, the GI50 is 0.0368 µM in the assay with SK-MEL-5 melanoma, 0.0277 µM with SNB-19 CNS, 0.0221 µM in the assay on U251 CNS and 0.1 µM with UACC-62 melanoma. Further, the TGI in the assay with 786-0 renal was above 21.1 µM; in the assay on A498 renal it was 39.2 µM; in the assay with HCT-15 colon, above 50 µM; in the assay with IGROV1 ovarian, above 50 µM; in the assay on OVCAR-4 ovarian, above 50 µM; in the assay with SK-MEL-5 melanoma, 1.69 µM. Also, the TGI with SNB-19 CNS, with U251 CNS and in the assay with UACC-62 melanoma was above 50 µM each time.
In the case of `CC1(C)C(=O)N(CCCCCCN2C(=O)C(C)(C)c3ccccc32)c2ccccc21`, the TGI is 40.8 µM in the assay on 786-0 renal; above 100 µM with A498 renal; above 100 µM in the assay with HCT-15 colon; 19.7 µM in the assay with HL-60(TB) leukemia; above 100 µM in the assay on IGROV1 ovarian; above 100 µM with OVCAR-4 ovarian. In addition, the TGI was 33.5 µM in the assay with SK-MEL-5 melanoma, above 100 µM in the assay with SNB-19 CNS, above 100 µM with U251 CNS and 79.8 µM with UACC-62 melanoma.
Take `COc1cc(C(C)O)c[n+](CCc2c[nH]c3ccccc23)c1` (stereo unspecified): the TGI in the assay on 786-0 renal, in the assay with A498 renal, in the assay with HCT-15 colon, in the assay with HL-60(TB) leukemia, in the assay on IGROV1 ovarian and with OVCAR-4 ovarian was above 100 µM in each case. For the same molecule, the TGI with SK-MEL-5 melanoma, in the assay on SNB-19 CNS, with U251 CNS and with UACC-62 melanoma was above 100 µM each time.
On to `Cc1nc(N)sc1C(=O)/C=C\c1ccc2c(c1)OCO2`, for which the TGI with 786-0 renal, in the assay on A498 renal, in the assay with HCT-15 colon, in the assay with HL-60(TB) leukemia, with IGROV1 ovarian and in the assay with OVCAR-4 ovarian was above 100 µM each time. Moreover, the TGI with SK-MEL-5 melanoma, in the assay with SNB-19 CNS, with U251 CNS and with UACC-62 melanoma was above 100 µM throughout.
In the case of `COc1cc2c(cc1OC)C(CC(=O)NN=C(C)C)NCC2` (stereo unspecified), the TGI with 786-0 renal, with A498 renal, in the assay with HCT-15 colon, in the assay on HL-60(TB) leukemia, in the assay on IGROV1 ovarian and in the assay with OVCAR-4 ovarian was above 100 µM throughout. Besides, the TGI with SK-MEL-5 melanoma, with SNB-19 CNS, in the assay on U251 CNS and in the assay with UACC-62 melanoma was above 100 µM in each case.
With `COC(=O)C1=C(C)N(NC(=O)OC(C)(C)C)C(=O)C1=P(c1ccccc1)(c1ccccc1)c1ccccc1`, the TGI with 786-0 renal, in the assay on A498 renal, with HCT-15 colon, in the assay with HL-60(TB) leukemia, with IGROV1 ovarian and in the assay with OVCAR-4 ovarian was above 100 µM in each case. The TGI in the assay on SK-MEL-5 melanoma, with SNB-19 CNS, with U251 CNS and with UACC-62 melanoma was above 100 µM each time.
For `CC1CC[C@]2(C(=O)O)CCC3(C)C(=CC(=O)C4[C@@]5(C)CCC(=O)C(C)(C)C5CC[C@]43C)[C@@H]2[C@H]1C` (stereo partly specified), the TGI in the assay with 786-0 renal is above 100 µM; in the assay on A498 renal, above 100 µM; in the assay with HL-60(TB) leukemia it was 24.7 µM; in the assay on IGROV1 ovarian, above 100 µM; in the assay on OVCAR-4 ovarian it was above 100 µM; with SK-MEL-5 melanoma it was above 100 µM. Further, the TGI is above 100 µM in the assay with SNB-19 CNS, 98.8 µM in the assay with U251 CNS and 30.6 µM in the assay on UACC-62 melanoma.
On to `COc1cc(/C=C/c2cc(/C=C/c3ccc(O)c(OC)c3)n(C(=O)Nc3ccc(F)c(Cl)c3)n2)ccc1O`, for which the GI50 is 0.52 µM with 786-0 renal; 0.783 µM in the assay with A498 renal; 0.25 µM in the assay with HCT-15 colon; 0.31 µM in the assay on HL-60(TB) leukemia; 0.47 µM with IGROV1 ovarian; 0.721 µM in the assay on OVCAR-4 ovarian. The GI50 was 0.243 µM with SK-MEL-5 melanoma, 0.514 µM in the assay with SNB-19 CNS and 0.452 µM in the assay on UACC-62 melanoma. Besides, the TGI in the assay on 786-0 renal worked out at 1.71 µM; with A498 renal, 2.1 µM; with HCT-15 colon it was 3.34 µM; with HL-60(TB) leukemia, 0.88 µM; with IGROV1 ovarian it was 3.59 µM; in the assay on OVCAR-4 ovarian it was 5.47 µM. The TGI stood at 1.37 µM in the assay on SK-MEL-5 melanoma, 2.1 µM in the assay with SNB-19 CNS and 1.99 µM in the assay on UACC-62 melanoma.
In the case of `CCOC(=O)c1c(C)n(Cc2ccc(Cl)cc2Cl)c2c1c(CN(C)C)c(O)c1[nH]cnc12`, the GI50 with 786-0 renal is 20.1 µM; in the assay with A498 renal it was 20 µM; with HCT-15 colon it was 15.5 µM; in the assay on HL-60(TB) leukemia it was 2.01 µM; with IGROV1 ovarian it was 17.1 µM; with OVCAR-4 ovarian, 16.7 µM. For the same molecule, the GI50 in the assay with SK-MEL-5 melanoma was 17.2 µM; in the assay with SNB-19 CNS, 18.4 µM; in the assay with U251 CNS, 14.8 µM. Further, the TGI in the assay on 786-0 renal was determined as 41.4 µM; in the assay on A498 renal, 35 µM; with HCT-15 colon, 28.9 µM; in the assay with HL-60(TB) leukemia, 8.33 µM; with IGROV1 ovarian, 31.5 µM; in the assay on OVCAR-4 ovarian, 85.7 µM. The TGI stood at 30.9 µM with SK-MEL-5 melanoma, 32.3 µM in the assay with SNB-19 CNS and 27.9 µM in the assay on U251 CNS.
`Nn1c(=O)n(Cc2ccccc2)n(-c2ccccc2)c1=O`: the TGI with 786-0 renal, in the assay with A498 renal, with HL-60(TB) leukemia, in the assay with IGROV1 ovarian, in the assay with OVCAR-4 ovarian and in the assay with SK-MEL-5 melanoma was above 100 µM in each case. Also, the TGI in the assay with SNB-19 CNS, in the assay on U251 CNS and with UACC-62 melanoma was above 100 µM each time.
For `CC(C)(C)c1cc(C(C)(C)C)cc(S(=O)(=O)Nc2cc3ccccc3cc2C(=O)NCCN)c1`, the GI50 in the assay with 786-0 renal is 1.67 µM; in the assay on A498 renal it was 1.77 µM; in the assay with HCT-15 colon it was 1.64 µM; with HL-60(TB) leukemia it was 2.04 µM; in the assay with OVCAR-4 ovarian, 1.86 µM; in the assay on SK-MEL-5 melanoma, 1.75 µM. Also, the values for the GI50 in the assay on SNB-19 CNS, with U251 CNS and in the assay with UACC-62 melanoma were 1.89 µM, 1.75 µM and 1.82 µM, respectively. In addition, the TGI was found to be 3.09 µM in the assay on 786-0 renal; 3.3 µM with A498 renal; 3.04 µM with HCT-15 colon; 4.22 µM in the assay with HL-60(TB) leukemia; 3.94 µM with OVCAR-4 ovarian; 3.13 µM with SK-MEL-5 melanoma. Also, the TGI in the assay on SNB-19 CNS was 3.52 µM; in the assay with U251 CNS, 3.15 µM; with UACC-62 melanoma, 3.4 µM.
